Measured values taken from the supplement of paper PMC13380429.

Legend:
Conditions in all cases: 72 h
Caco-2 [1] = test: cell viability relative to DMSO; higher = less toxic
Calu-3 [2] = test: as above
HepG2 [3] = test: as above
U2OS [4] = test: as above
Vero E6 [5] = test: as above
Caco-2 [6] = test: relative viability EC50 (midpoint between 100% and the lowest measured viability); higher = less toxic
Calu-3 [7] = test: as above
HepG2 [8] = test: as above
U2OS [9] = test: as above
Vero E6 [10] = test: as above
Caco-2 [11] = test: drug sensitivity score (DSS) for viability; higher = more toxic; extreme values may be limits of the assay
Calu-3 [12] = test: as above
HepG2 [13] = test: as above
U2OS [14] = test: as above
Vero E6 [15] = test: as above

SMILES | cell viability (Caco-2 [1]; 1 nM) [%] | cell viability (Caco-2 [1]; 10 nM) [%] | cell viability (Caco-2 [1]; 100 nM) [%] | cell viability (Caco-2 [1]; 1000 nM) [%] | cell viability (Caco-2 [1]; 10000 nM) [%] | cell viability (Calu-3 [2]; 1 nM) [%] | cell viability (Calu-3 [2]; 10 nM) [%] | cell viability (Calu-3 [2]; 100 nM) [%] | cell viability (Calu-3 [2]; 1000 nM) [%] | cell viability (Calu-3 [2]; 10000 nM) [%] | cell viability (HepG2 [3]; 1 nM) [%] | cell viability (HepG2 [3]; 10 nM) [%] | cell viability (HepG2 [3]; 100 nM) [%] | cell viability (HepG2 [3]; 1000 nM) [%] | cell viability (HepG2 [3]; 10000 nM) [%] | cell viability (U2OS [4]; 1 nM) [%] | cell viability (U2OS [4]; 10 nM) [%] | cell viability (U2OS [4]; 100 nM) [%] | cell viability (U2OS [4]; 1000 nM) [%] | cell viability (U2OS [4]; 10000 nM) [%] | cell viability (Vero E6 [5]; 1 nM) [%] | cell viability (Vero E6 [5]; 10 nM) [%] | cell viability (Vero E6 [5]; 100 nM) [%] | cell viability (Vero E6 [5]; 1000 nM) [%] | cell viability (Vero E6 [5]; 10000 nM) [%] | relative viability EC50 (Caco-2 [6]) [µM] | relative viability EC50 (Calu-3 [7]) [µM] | relative viability EC50 (HepG2 [8]) [µM] | relative viability EC50 (U2OS [9]) [µM] | relative viability EC50 (Vero E6 [10]) [µM] | drug sensitivity score (Caco-2 [11]) | drug sensitivity score (Calu-3 [12]) | drug sensitivity score (HepG2 [13]) | drug sensitivity score (U2OS [14]) | drug sensitivity score (Vero E6 [15])
CN(C)CCOC(C)(c1ccccc1)c1ccccn1 (stereo not given) [doxylamine] | 106 | 97.6 | 98.6 | 98.1 | 104 | 98.6 | 105 | 98.6 | 106 | 108 | 102 | 101 | 101 | 106 | 99.8 | 104 | 100 | 103 | 98.4 | 101 | 99.5 | 102 | 100 | 100 | 99.6 | > 10 | > 10 | > 10 | > 10 | > 10 | 0 | 0 | 0 | 0 | 0
CCOC(=O)COc1ccc2c(=O)cc(-c3ccccc3)oc2c1 [efloxate] | 93 | 88.6 | 101 | 101 | 96.1 | 105 | 98.9 | 85.8 | 83.5 | 99.1 | 97.9 | 100 | 98.3 | 99.2 | 99.3 | 95.4 | 95.5 | 98.7 | 96.7 | 99.2 | 97 | 100 | 91.9 | 101 | 106 | > 10 | > 10 | > 10 | > 10 | > 10 | 0 | 3 | 0 | 0 | 0
COC(=O)N[C@H](C(=O)N1CCC[C@H]1c1nc(-c2ccc3c(c2)O[C@@H](c2ccccc2)n2c-3cc3cc(-c4c[nH]c([C@@H]5CCCN5C(=O)[C@@H](NC(=O)OC)C(C)C)n4)ccc32)c[nH]1)C(C)C [elbasvir] | 85 | 103 | 93.1 | 96.1 | 101 | 99.9 | 106 | 95.8 | 107 | 102 | 110 | 88.7 | 108 | 104 | 96.8 | 90.3 | 100 | 98.2 | 97.8 | 99.7 | 105 | 98.5 | 95.3 | 95.5 | 107 | > 10 | > 10 | > 10 | > 10 | > 10 | 0 | 0 | 0 | 0 | 0
O=c1oc2c(O)c(O)cc3c(=O)oc4c(O)c(O)cc1c4c23 [ellagic-acid] | 104 | 95.8 | 104 | 98.5 | 96.6 | 98.4 | 95.9 | 99.4 | 100 | 93.2 | 93.6 | 97 | 97.5 | 96.4 | 91.9 | 99.3 | 99.6 | 103 | 100 | 105 | 99.1 | 106 | 100 | 105 | 107 | > 10 | > 10 | > 10 | > 10 | > 10 | 0 | 0 | 0 | 0 | 0
CCOC(=O)Nc1ccc2c(c1)N(C(=O)CCN(CC)CC)c1ccccc1S2 [ethacizin] | 94.6 | 82.9 | 97.8 | 103 | 97.6 | 98.3 | 94.8 | 97.4 | 99.2 | 98.1 | 86.4 | 90.4 | 80.8 | 92.7 | 104 | 97.2 | 105 | 95.6 | 101 | 95.9 | 104 | 91.8 | 103 | 88.9 | 106 | > 10 | > 10 | > 10 | > 10 | > 10 | 0 | 0 | 0.2 | 0 | 0
O=C(OCC(O)CO)c1ccccc1Nc1ccnc2c(C(F)(F)F)cccc12 (stereo not given) [floctafenine] | 92.2 | 90.2 | 95.9 | 92.5 | 96.9 | 108 | 98.5 | 95.9 | 98.7 | 81.1 | 101 | 106 | 107 | 105 | 92.2 | 101 | 99.4 | 100 | 98.5 | 93.4 | 98.3 | 107 | 95.4 | 101 | 104 | > 10 | > 10 | > 10 | > 10 | > 10 | 0 | 0.7 | 0 | 0 | 0
CC(C)C(=O)Nc1ccc([N+](=O)[O-])c(C(F)(F)F)c1 [flutamide] | 107 | 108 | 92.1 | 116 | 85.7 | 101 | 96.2 | 99.6 | 101 | 94.9 | 94.5 | 107 | 96.9 | 84.2 | 90.7 | 92 | 97.2 | 94.3 | 100 | 93.8 | 106 | 89.8 | 104 | 107 | 111 | > 10 | > 10 | > 10 | > 10 | > 10 | 0 | 0 | 2 | 0 | 0
COc1ccc(-c2coc3cc(O)ccc3c2=O)cc1 [formononetin] | 101 | 101 | 100 | 95.6 | 94.2 | 103 | 94.5 | 102 | 89.8 | 93.7 | 102 | 106 | 97.8 | 104 | 96.7 | 102 | 98 | 99.9 | 102 | 103 | 102 | 101 | 99.9 | 105 | 102 | > 10 | > 10 | > 10 | > 10 | > 10 | 0 | 0 | 0 | 0 | 0
COc1ccc(CCN(C)CCCC(C#N)(c2cc(OC)c(OC)c(OC)c2)C(C)C)cc1OC (stereo not given) [gallopamil] | 91.3 | 91.5 | 92.1 | 91.6 | 96 | 94.1 | 104 | 97 | 92.2 | 104 | 96.8 | 103 | 98.3 | 101 | 106 | 94 | 99.7 | 96.4 | 97.3 | 99.3 | 101 | 97.3 | 96.9 | 102 | 106 | > 10 | > 10 | > 10 | > 10 | > 10 | 0 | 0 | 0 | 0 | 0
OCc1ccc(O[C@@H]2O[C@H](CO)[C@@H](O)[C@H](O)[C@H]2O)cc1 [gastrodin] | 106 | 95.9 | 107 | 92 | 106 | 108 | 94.1 | 94.2 | 110 | 104 | 99.1 | 104 | 104 | 107 | 117 | 97.7 | 99.9 | 100 | 99.7 | 98.1 | 95.4 | 99.6 | 95.1 | 92.1 | 95.3 | > 10 | > 10 | > 10 | > 10 | > 10 | 0 | 0 | 0 | 0 | 0
Cc1cc(O)c2c(=O)c3c(O)cc(O)c4c5c(O)cc(O)c6c(=O)c7c(O)cc(C)c8c1c2c(c34)c(c78)c65 [hypericin] | 104 | 101 | 104 | 99.4 | 98.3 | 106 | 101 | 94 | 110 | 79.7 | 108 | 106 | 103 | 101 | 81.9 | 102 | 94.6 | 91.2 | 96.2 | 77.1 | 96.3 | 91.3 | 101 | 80.7 | 95.7 | > 10 | > 10 | > 10 | > 10 | > 10 | 0 | 0.3 | 0.4 | 1.4 | 0
CCc1cc2c(cc1CC)CC(NC[C@H](O)c1ccc(O)c3[nH]c(=O)ccc13)C2 [indacaterol] | 89.7 | 97 | 101 | 94.8 | 96.4 | 112 | 94.2 | 112 | 101 | 91.5 | 121 | 115 | 98.4 | 115 | 81 | 106 | 100 | 104 | 95.6 | 95.4 | 96.8 | 94.3 | 96.8 | 96.3 | 94.2 | > 10 | > 10 | > 10 | > 10 | > 10 | 0 | 0 | 0.2 | 0 | 0
CC(C)NNC(=O)c1ccncc1 [iproniazid] | 93.6 | 95.9 | 98.9 | 90.8 | 103 | 93.2 | 97.9 | 94.6 | 107 | 99.6 | 108 | 96.4 | 108 | 104 | 105 | 96.6 | 98.9 | 97.4 | 103 | 104 | 100 | 95.1 | 101 | 90.8 | 108 | > 10 | > 10 | > 10 | > 10 | > 10 | 0 | 0 | 0 | 0 | 0
CC(C)COC(=O)c1ccc(N)cc1 [isobutamben] | 100 | 95.9 | 102 | 93.1 | 98.8 | 87.8 | 100 | 103 | 111 | 102 | 98.7 | 103 | 94.9 | 88 | 90.2 | 104 | 96.4 | 102 | 94.1 | 99.9 | 102 | 106 | 97.9 | 98.6 | 96.2 | > 10 | > 10 | > 10 | > 10 | > 10 | 0 | 0 | 0.7 | 0 | 0
NNC(=O)c1ccncc1 [isoniazid] | 97.4 | 99.4 | 103 | 91.7 | 97.6 | 110 | 98.7 | 100 | 99.2 | 99.8 | 107 | 108 | 100 | 103 | 93.7 | 101 | 96.6 | 101 | 96.7 | 102 | 97.8 | 106 | 97.9 | 97.9 | 98.4 | > 10 | > 10 | > 10 | > 10 | > 10 | 0 | 0 | 0 | 0 | 0
